Results reported in patent US9040712B2, “Thiadiazole analogs thereof and methods for treating SMN-deficiency-related-conditions” (NOVARTIS AG, priority 2013, dated 2015).

The compounds below were run on SMN protein (assay: cellular SMN ELISA (SMN protein elevation)). Settings: myoblast cell line derived from SMNdelta7 mouse model; 24 hours compound treatment; concentration range 100 pM-10 uM.
Type: cell-based
How it was run: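 Myoblasts derived from the SMNdelta7 mouse model, 3000 cells/well, treated with compound (100 pM–10 uM) for 24 h, then lysed in modified RIPA buffer. SMN protein quantified by sandwich ELISA (anti-SMN mAb capture, rabbit polyclonal detection, HRP/TMB, 450 nm). Results given as fold activation over DMSO and EC50.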

Question: What does the source list for `CN(c1nnc(-c2ccc(-c3cnn4c3CCCC4)cc2Cl)s1)C1CC(C)(C)NC(C)(C)C1` [Example 41, 5-(2-chloro-4-(4,5,6,7-tetrahydropyrazolo[1,5-a]pyridin-3-yl)phenyl)-N-methyl-N-(2,2,6,6-tetramethylpiperidin-4-yl)-1,3,4-thiadiazol-2-amine]?
Answer: EC50: 507 nM; SMN Activity Fold (fold activation over DMSO control): 2.44 fold

Question: Which EC50 does the source give for `CN(c1nnc(-c2ccc(-c3ccc(N)nc3)cc2F)s1)C1CC(C)(C)NC(C)(C)C1` [Example 45, 5-(4-(6-aminopyridin-3-yl)-2-fluorophenyl)-N-methyl-N-(2,2,6,6-tetramethylpiperidin-4-yl)-1,3,4-thiadiazol-2-amine] here?
Answer: Its EC50 is 163 nM.

Question: And the “SMN Activity Fold (fold activation over DMSO control)” value (shortened to “SMN Activity Fold”)?
Answer: Its value is 2.26 fold.

Question: How did the EC50 turn out when `COc1cc(-c2cnn(C)c2)ccc1-c1nnc(N2CC3(CCCNC3)C2)s1` [Example 85, 2-(2-methoxy-4-(1-methyl-1H-pyrazol-4-yl)phenyl)-5-(2,6-diazaspiro[3.5]nonan-2-yl)-1,3,4-thiadiazole] was run?
Answer: Its EC50 is 282 nM.

Question: What about the “SMN Activity Fold” value of the same compound?
Answer: Its value is 2.22 fold.

Question: Which EC50 does the source give for `CN(c1nnc(-c2cc(-n3cccn3)ccc2O)s1)C1CC(C)(C)NC(C)(C)C1` [Example 24, 2-(5-(Methyl(2,2,6,6-tetramethylpiperidin-4-yl)amino)-1,3,4-thiadiazol-2-yl)-4-(1H-pyrazol-1-yl)phenol] here?
Answer: The EC50 was 987 nM.

Question: And the “SMN Activity Fold” value?
Answer: The value was 2.28 fold.

Question: What does the source list for `CN1C[C@@H]2CN(c3nnc(-c4ccc(-c5cn[nH]c5)cc4Cl)s3)C[C@@H]2C1` [Example 80, 2-(2-chloro-4-(1H-pyrazol-4-yl)phenyl)-5-((3aR,6aS)-5-methylhexahydropyrrolo[3,4-c]pyrrol-2(1H)-yl)-1,3,4-thiadiazole]?
Answer: EC50: 149 nM; SMN Activity Fold (fold activation over DMSO control): 2.70 fold

Question: What does the source list for `COc1cc(-n2cccn2)ccc1-c1nnc(NC2CC(C)(C)N(C)C(C)(C)C2)s1` [Example 5, 5-(2-Methoxy-4-(1H-pyrazol-1-yl)phenyl)-N-(1,2,2,6,6-pentamethylpiperidin-4-yl)-1,3,4-thiadiazol-2-amine]?
Answer: EC50: 87 nM; SMN Activity Fold (fold activation over DMSO control): 2.88 fold

Question: How did the EC50 turn out when `COc1cc(-c2ccn[nH]2)ccc1-c1nnc(N(C)C2CC(C)(C)NC(C)(C)C2)s1` [Example 73, 5-(2-methoxy-4-(1H-pyrazol-5-yl)phenyl)-N-methyl-N-(2,2,6,6-tetramethylpiperidin-4-yl)-1,3,4-thiadiazol-2-amine] was run?
Answer: Its EC50 is 110 nM.

Question: What about the “SMN Activity Fold” value of the same compound?
Answer: Its value is 2.73 fold.
